{"source": "patent US8158577B2", "about": "“Modulation of cartilage homeostasis by active domains of cell binding extracellular matrix molecules” (priority 2004, dated 2012)", "key": {"K105 cells [1]": {"system": "K105 cells", "assay": "Effect on K105 cells already adherent to chondroadherin, light microscopy time study (FIG. 7, 9, 10)", "type": "cell-based, human", "conditions": "for spreading, migration and aggregation of k105 cells adherent to chondroadherin: peptide 250 μg/ml added after 30 min adhesion, light microscopy after 1, 3 and 20 hours; for spreading and aggregation or detaching of k105 cells adherent to chondroadherin (FIG. 10): peptide, anti β1 antibody or 5 mM EDTA added after 30 min, light microscopy after 1 and 3 hours", "method": "(§1) To test cell binding, the chondrosarcoma cells or bovine chondrocytes were suspended in PBS containing 0.1% BSA, 25 U/ml collagenase and added to the wells (50,000/well), in the absence or presence of various peptide pools or the synthetic peptides (200, 100, 50, 25, 12.5 μg/ml). Non-adherent cells were removed after 1 hour and adhesion was determined by measuring lysosomal N-acetylglucosaminidase (12). Adhesion and spreading was visualized by light microscopy. In the time studies, k105 cells were allowed to adhere for 30 minutes, unbound cells were removed and medium without serum supplemented with or without peptides (250 μg/ml), β1 integrin antibody (clone P4C10, Gibco BRL), EDTA (5 mM) was added. Cell morphology was visualized by light microscopy after 1, 3 and 20 hours.\n(§2) Tissue culture dishes were coated with 5 μg/ml chondroadherin expressed in E. coli and blocked for non-specific binding with BSA. The k105 cells were suspended in PBS containing 0.1% BSA, and added to the wells (50,000/well). Nonadherent cells were removed after 30 min by washing, plain medium without serum with or without peptides (250 μg/ml) was added and bound cells were visualized by light microscopy after 1, 3 and 20 hours.\nas §2, with “The” for “The k105”, “hours. […] The activity for integrin binding is located in the C-terminal eight residues of the sequence involving the WLEAK (SEQ ID No. 1) sequence.” for “hours.”\nas §2, with “washing, peptide, anti β1 antibody, 5 mM EDTA or” for “washing,”, “serum” for “serum with or without peptides (250 μg/ml)”, “1 and” for “1,”, “3” for “3 and 20”"}, "K105 cells [2]": {"system": "K105 cells", "assay": "Adhesion of K105 cells to chondroadherin in the presence of synthetic peptide (FIG. 3, 5A-5B, 13)", "type": "cell-based, human", "conditions": "1 hour at 37° C.; for adhesion of k105 cells to chondroadherin in the presence of peptide: peptide 200, 100, 50, 25, 12.5 μg/ml", "method": "Human cells (K9) originating from a human chondrosarcoma were a kind gift from Drs. Sven Inerot and Anders Lindahl, The Salgrenska University Hospital Gothenburg, Sweden. The K9 cells were cultured in Dulbeccos Modified Eagle Medium: Nutrient Mixture F12 (DMEM/F12 1:1) with GLUTAMAX I, supplemented with 10% fetal calf serum, 25 μg/ml ascorbic acid, 50 IU of penicillin and 50 μg/ml streptomycin (Life Technologies, Inc.). A different human cells line (K105) originating from a human chondrosarcoma was a kind gift from Dr. Sven Inerot, The Salgrenska University Hospital, Gothenburg, Sweden. The K105 cells were cultured in a mix of 40% Dulbeccos Modified Eagle Medium, 40% Minimum Essential Media (MEM) alpha Medium, 10% Nutrient Mixture F1 supplemented with 100 nM hydrocortisone, 100 ng/ml insulin, 10% fetal calf serum, 25 μg/ml ascorbic acid, 50 IU of penicillin and 50 μg/ml streptomycin (Life Technologies, Inc.). To harvest cells, culture dishes were rinsed three times with Ca^2+/Mg^2+-free PBS and the cells were incubated with 0.5% trypsin and 1 mM EDTA for 5 min. Detached cells were suspended in PBS containing 1 mg/ml trypsin inhibitor (Sigma) and then washed in PBS. To remove membrane-bound collagens the cells were treated with collagenase 100 U/ml (CLSPA; Worthington Biochemical Corp., Lakewood, N.J.) in PBS, 30 min. 37° C. and then washed in PBS.\n(§3) Tissue culture 48-wells dishes (Nunclon, Nunc, Denmark) were coated overnight with 5 μg/ml chondroadherin in 4M Guanidine-HCl, 50 mM sodium acetate, pH 5.8, or for native protein in PBS. Alternatively coating was with 5 μg/ml collagen type II in PBS followed by after-coating with 0.5% BSA in PBS for 3 hours. Collagen type II was isolated from bovine nasal cartilage by pepsin digestion (11). Bacterially expressed chondroadherin was isolated as described above. Recombinant chondroadherin expressed in EBNA cell was cloned and purified as described elsewhere (8).\nas §1\nStudy design: Tissue culture dishes (48-wells) were coated with 5 μg/ml chondroadherin expressed in E. coli and blocked for non-specific binding with BSA. […] were suspended in PBS containing 0.1% BSA, 25 U/ml collagenase and added to the wells (50,000/well) in the presence of synthetic peptide to be tested and allowed to adhere for 1 hour at 37° C. Nonadherent cells were removed by washing, and adhesion was determined by analyzing lysosomal hexosaminidase.\nA 12-mer peptide (1947.01) plus an N-terminal cysteine (CQLRGLRRWLEAK) (SEQ ID NO. 3) representing the candidate sequence identified by mass spectrometry were synthesized and its ability to inhibit cell adhesion was determined. Tissue culture dishes were coated with 5 μg/ml chondroadherin expressed in E. coli and blocked for non-specific binding with BSA. The cells were suspended in PBS containing 0.1% BSA, 25 U/ml collagenase and added to the wells (50,000/well) in the presence of synthetic peptide (200, 100, 50, 25, 12.5 μg/ml) and allowed to adhere for 1 hour at 37° C. Nonadherent cells were removed by washing, and adhesion was determined by analyzing lysosomal hexosaminidase. […]"}, "K105 cells [3]": {"system": "K105 cells", "assay": "Adhesion of K105 cells to the coated cell binding peptides (FIG. 8)", "type": "cell-based, human", "method": "Tissue culture dishes were coated with 33 μg/ml (20 µM) peptide solution. The cells (50,000/well) were suspended in PBS containing 0.1% BSA, 25 U/ml collagenase and added to the wells in the presence or absence of synthetic peptide (250 μg/ml) and allowed to adhere for 1 hour at 37° C. Nonadherent cells were removed by washing. Spreading was visualized by light microscopy."}, "bovine chondrocytes": {"system": "bovine chondrocytes", "assay": "Adhesion of bovine chondrocytes to human chondroadherin with or without cell binding peptides (FIG. 6)", "type": "cell-based", "conditions": "peptide 250 μg/ml, 1 hour at 37° C., 100,000 cells/well", "method": "Bovine chondrocytes were isolated by collagenase (CLS1; Worthington Biochemical Corp., Lakewood, N.J.) digestion of articular cartilage from 4-6 month old calves as described (10). Briefly, cartilage slices were digested for 16 hours with collagenase in EBSS (Earle's balanced salt solution, GIBCO BRL Gaithersburg, Md.). The cells were filtered through a 100 μm nylon filter, washed three times in PBS containing 0.2% BSA (SERVA).\n(§4) To test cell binding, the chondrosarcoma cells or bovine chondrocytes were suspended in PBS containing 0.1% BSA, 25 U/ml collagenase and added to the wells (50,000/well), in the absence or presence of various peptide pools or the synthetic peptides (200, 100, 50, 25, 12.5 μg/ml). Non-adherent cells were removed after 1 hour and adhesion was determined by measuring lysosomal N-acetylglucosaminidase (12). Adhesion and spreading was visualized by light microscopy. […]\nTissue culture dishes were coated with 5 μg/ml chondroadherin expressed in E. coli or collagen type II and blocked for non-specific binding with BSA. […] Adhesion was determined by analyzing lysosomal hexosaminidase. Adhesion is expressed as number of cells, 100,000 cells/well was seeded. […]"}, "K105 cells [4]": {"system": "K105 cells", "assay": "Adhesion of K105 cells to collagen type II in the presence of synthetic peptide (FIG. 5C-5D)", "type": "cell-based, human", "conditions": "peptide 250 μg/ml, 1 hour at 37° C.", "method": "as §3, §4\nTissue culture dishes were coated with 5 μg/ml chondroadherin expressed in E. coli or collagen type II and blocked for non-specific binding with BSA. […] Spreading was visualized by light microscopy, and adhesion was determined by analyzing lysosomal hexosaminidase. Adhesion is expressed as number of cells where the data represent the average of two wells. […]"}}, "note": "“Also recorded” adds a separate entry of the source."}
{"molecule": "QLRGLRRW (listed as Homo sapiens)", "values": [{"measurement": "spreading, migration and aggregation of k105 cells adherent to chondroadherin", "setting": "K105 cells [1]", "value": "no effect"}]}
{"molecule": "Ac-[CQLRGLRRWLEAKASRPDATC]-NH2 (Ac-CQLRGLRRWLEAKASRPDATC-NH2; also: cyclised (brackets), bond type not given here; listed as Homo sapiens) [SEQ ID No. 12]", "values": [{"measurement": "inhibitory effect on K105 cell adhesion to chondroadherin (Example II, FIG. 13)", "setting": "K105 cells [2]", "value": "inhibitory effect"}]}
{"molecule": "H-LRRWLEAK-OH (listed as Homo sapiens) [SEQ ID No. 2]", "values": [{"measurement": "spreading, migration and aggregation of k105 cells adherent to chondroadherin", "setting": "K105 cells [1]", "value": "prevented spreading and induced cells to form aggregate"}]}
{"molecule": "CQLRGLRRWLEAK (N-terminal cysteine; listed as Homo sapiens) [12-mer peptide plus an N-terminal cysteine]", "values": [{"measurement": "adhesion and shape of k105 cells plated on the peptide", "setting": "K105 cells [3]; dishes coated with 33 μg/ml peptide, 1 hour at 37° C.", "value": "adhere and remain round"}, {"measurement": "inhibition of k105 adhesion to the coated peptide by the same peptide in solution", "setting": "K105 cells [3]; peptide in solution 250 μg/ml", "value": "inhibited"}, {"measurement": "spreading, migration and aggregation of k105 cells adherent to chondroadherin", "setting": "K105 cells [1]", "value": "stimulated the cells to form aggregate; also recorded: prevented spreading and induced cells to form aggregate"}, {"measurement": "spreading and aggregation or detaching of k105 cells adherent to chondroadherin (FIG. 10)", "setting": "K105 cells [1]", "value": "prevented spreading and the cells formed aggregate"}, {"measurement": "bovine chondrocyte adhesion to chondroadherin in the presence of peptide", "setting": "bovine chondrocytes", "value": "decreased"}, {"measurement": "k105 cell adhesion to collagen type II in the presence of peptide", "setting": "K105 cells [4]", "value": "not significantly affected"}, {"measurement": "k105 cell adhesion to chondroadherin in the presence of peptide", "setting": "K105 cells [2]; peptide 250 μg/ml", "value": "decreased"}, {"measurement": "adhesion of k105 cells to chondroadherin in the presence of peptide", "setting": "K105 cells [2]", "value": "able to inhibit"}, {"measurement": "adhesion of k105 cells to chondroadherin in the presence of peptide", "setting": "K105 cells [2]; listed as 12-mer peptide", "value": "decreased in a dose dependent manner"}]}
{"molecule": "O=C(O)CN(CCN(CC(=O)O)CC(=O)O)CC(=O)O", "note": "[EDTA, reference compound]", "values": [{"measurement": "spreading and aggregation or detaching of k105 cells adherent to chondroadherin (FIG. 10)", "setting": "K105 cells [1]", "value": "cells detaching"}]}
{"molecule": "H-QLRGLRRWLEAK-OH (listed as Homo sapiens) [SEQ ID No. 3]", "values": [{"measurement": "spreading, migration and aggregation of k105 cells adherent to chondroadherin", "setting": "K105 cells [1]", "value": "prevented spreading and induced cells to form aggregates"}]}
